In ChEMBL document CHEMBL1201862, “PubChem BioAssay data set” (2004):
Calls of active or inactive are those of the source.

What was measured:
[1] = biological target: DNA dC->dU-editing enzyme APOBEC-3G (Homo sapiens, UniProt Q9HC16); assay type: functional;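 also: Dose-response counterscreen measuring inhibition of APOBEC3G DNA deaminase activity, run while confirming APOBEC3A inhibitors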
[2] = biological target: DNA dC->dU-editing enzyme APOBEC-3A (Homo sapiens, UniProt P31941); experiment: Dose Response confirmation of small molecule APOBEC3A DNA Deaminase Inhibitors via a fluorescence-based single-stranded DNA deaminase assay. [Related pubchem assays (depositor defined):AID493011, AID493024]; assay type: functional
[3] = biological target: T1, Coagulation factor XII (Homo sapiens, UniProt P00748); assay type: functional;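 also: activated factor XIIa alpha cleaving a fluorogenic AMC peptide substrate; inhibitor potency from loss of enzyme activity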
T1 sequence (P00748 whole entry): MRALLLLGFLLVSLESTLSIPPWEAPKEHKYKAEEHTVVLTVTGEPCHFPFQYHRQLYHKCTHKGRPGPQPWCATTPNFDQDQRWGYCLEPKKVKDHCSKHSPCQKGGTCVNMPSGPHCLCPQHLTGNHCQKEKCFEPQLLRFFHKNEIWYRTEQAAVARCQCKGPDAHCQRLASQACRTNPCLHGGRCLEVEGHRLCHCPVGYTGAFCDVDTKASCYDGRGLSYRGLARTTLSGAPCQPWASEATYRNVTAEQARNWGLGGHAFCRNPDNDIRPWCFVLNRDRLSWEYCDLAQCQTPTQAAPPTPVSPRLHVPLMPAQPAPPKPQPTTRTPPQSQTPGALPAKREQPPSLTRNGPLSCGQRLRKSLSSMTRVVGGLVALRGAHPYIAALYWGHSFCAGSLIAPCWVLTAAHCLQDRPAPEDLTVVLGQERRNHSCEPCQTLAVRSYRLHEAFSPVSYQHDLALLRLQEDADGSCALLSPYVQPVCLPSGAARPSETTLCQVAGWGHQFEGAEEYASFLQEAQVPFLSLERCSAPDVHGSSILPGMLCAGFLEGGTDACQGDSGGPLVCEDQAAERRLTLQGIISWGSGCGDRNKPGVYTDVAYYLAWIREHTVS

[4] = HepG2 cell cytotoxicity, dose response, cytotoxicity control for Shn3 inhibitor project, CellTiter-Glo, cherry-picked (AID 624134); assay type: functional, cell-based
[5] = Shn3 3'UTR reporter inhibitors, dose response, cell-based, Clone20 osteoblasts, firefly luciferase, cherry-picked (AID 624132); assay type: functional;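 also: firefly luciferase luminescence from reporter carrying the Shn3 3'UTR in osteoblasts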
[6] = tested on: INS1; experiment: beta cell apoptosis inhibitors, cytokine rescue, dose response, luminescence, retest (AID 449756); assay type: functional, cell-based; conditions: Rattus norvegicus;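 also: cell death triggered by IL-1 beta plus TNF-alpha plus IFN-gamma mixture; protective hits raise ATP signal compared with cytokine alone wells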
[7] = control 3'UTR Renilla luciferase suppression, dose response, counter-screen for Shn3 inhibitor project, cell-based, Clone20-Shn3RL, cherry-picked (AID 624133); assay type: functional
[8] = inhibitors of intracellular T. cruzi replication, confirmation, NIH3T3 host cells, beta-gal luminescence (AID 2044); assay type: functional, cell-based;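 also: intracellular parasites grown in NIH/3T3 mouse fibroblasts as host cells; luminescent beta-galactosidase reporter signal from transgenic T. cruzi replicating inside host cells; inhibitors lower the luminescence signal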
[9] = cytotoxicity toward NIH3T3 fibroblasts, dose response, counter-screen, cell-based, ATP luminescence, mouse fibroblasts (AID 2010); assay type: functional;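 also: cells exposed to compound for about 90 hours before reading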
[10] = biological target: T2, Histone-lysine N-methyltransferase NSD2 (Homo sapiens, UniProt O96028); assay type: biochemical
T2 sequence (O96028 whole entry): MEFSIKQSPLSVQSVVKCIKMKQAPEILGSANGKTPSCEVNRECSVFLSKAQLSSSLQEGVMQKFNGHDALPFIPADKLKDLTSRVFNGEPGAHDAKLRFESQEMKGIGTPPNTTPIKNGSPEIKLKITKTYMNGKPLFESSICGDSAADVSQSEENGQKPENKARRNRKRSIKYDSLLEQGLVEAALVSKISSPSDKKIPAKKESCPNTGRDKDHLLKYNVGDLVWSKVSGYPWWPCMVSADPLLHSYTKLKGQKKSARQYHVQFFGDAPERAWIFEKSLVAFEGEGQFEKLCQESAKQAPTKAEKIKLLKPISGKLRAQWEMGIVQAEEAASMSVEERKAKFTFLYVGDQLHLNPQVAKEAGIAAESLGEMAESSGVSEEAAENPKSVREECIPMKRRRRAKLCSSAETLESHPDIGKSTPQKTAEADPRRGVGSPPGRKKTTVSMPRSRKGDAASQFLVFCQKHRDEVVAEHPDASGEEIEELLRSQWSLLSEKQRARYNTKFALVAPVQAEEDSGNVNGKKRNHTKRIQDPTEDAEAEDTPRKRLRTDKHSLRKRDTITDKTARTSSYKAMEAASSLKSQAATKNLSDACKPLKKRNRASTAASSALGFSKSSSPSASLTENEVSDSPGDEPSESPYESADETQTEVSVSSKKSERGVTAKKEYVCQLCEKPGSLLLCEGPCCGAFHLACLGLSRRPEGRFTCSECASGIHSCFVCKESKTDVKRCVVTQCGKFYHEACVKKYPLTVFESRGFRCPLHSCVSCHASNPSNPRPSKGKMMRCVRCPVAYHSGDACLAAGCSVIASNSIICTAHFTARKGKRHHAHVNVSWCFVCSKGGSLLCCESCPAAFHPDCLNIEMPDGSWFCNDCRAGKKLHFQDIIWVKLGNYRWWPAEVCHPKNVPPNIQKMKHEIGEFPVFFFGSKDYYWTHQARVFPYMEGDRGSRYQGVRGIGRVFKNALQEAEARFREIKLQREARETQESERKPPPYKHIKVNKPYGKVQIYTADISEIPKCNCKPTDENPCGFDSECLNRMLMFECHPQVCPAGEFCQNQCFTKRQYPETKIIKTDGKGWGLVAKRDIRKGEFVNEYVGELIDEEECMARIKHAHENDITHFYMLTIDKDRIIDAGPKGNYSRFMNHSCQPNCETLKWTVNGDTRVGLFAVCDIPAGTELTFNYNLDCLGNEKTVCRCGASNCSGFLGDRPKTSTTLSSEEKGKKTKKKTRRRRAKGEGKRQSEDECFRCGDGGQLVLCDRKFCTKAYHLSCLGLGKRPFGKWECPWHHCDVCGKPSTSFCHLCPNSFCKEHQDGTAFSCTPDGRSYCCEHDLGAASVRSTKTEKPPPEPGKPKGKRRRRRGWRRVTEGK

[11] = biological target: T3, Protein RecA (Mycobacterium tuberculosis, UniProt P9WHJ3); experiment: Fluorescence Cell-Free Homogeneous Dose Retest to Identify Inhibitors of RecA-Intein Splicing Activity. [Related pubchem assays (depositor defined):AID2097, AID2223, AID489010, AID492950]; assay type: functional
T3 sequence (P9WHJ3 whole entry): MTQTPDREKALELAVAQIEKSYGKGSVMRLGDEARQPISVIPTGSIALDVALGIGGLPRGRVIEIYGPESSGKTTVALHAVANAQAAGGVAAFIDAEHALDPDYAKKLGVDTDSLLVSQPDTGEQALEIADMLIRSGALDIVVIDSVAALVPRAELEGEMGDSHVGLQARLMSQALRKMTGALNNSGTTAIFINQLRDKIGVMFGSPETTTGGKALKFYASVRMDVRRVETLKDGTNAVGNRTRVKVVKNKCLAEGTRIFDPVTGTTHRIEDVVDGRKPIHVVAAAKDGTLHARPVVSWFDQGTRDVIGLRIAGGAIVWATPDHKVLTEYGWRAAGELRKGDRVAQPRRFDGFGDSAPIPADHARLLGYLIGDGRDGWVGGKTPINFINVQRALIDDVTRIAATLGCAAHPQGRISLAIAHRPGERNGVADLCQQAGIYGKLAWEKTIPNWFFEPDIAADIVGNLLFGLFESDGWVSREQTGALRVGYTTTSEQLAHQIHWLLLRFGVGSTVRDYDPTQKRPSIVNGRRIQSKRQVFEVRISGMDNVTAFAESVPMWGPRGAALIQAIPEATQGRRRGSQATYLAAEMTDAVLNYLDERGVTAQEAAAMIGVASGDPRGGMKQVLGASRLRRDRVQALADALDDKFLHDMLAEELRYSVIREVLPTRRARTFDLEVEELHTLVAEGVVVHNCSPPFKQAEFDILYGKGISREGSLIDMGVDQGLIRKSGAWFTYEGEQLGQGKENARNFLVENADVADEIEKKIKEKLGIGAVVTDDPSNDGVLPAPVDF

[12] = biological target: T4, Aminopeptidase N (Plasmodium falciparum FcB1/Columbia, UniProt O96935); experiment: P. falciparum M1AAP inhibitors, biochemical, fluorogenic H-Leu-NHMec substrate, 1536-well (AID 1445); set-up: species or system Plasmodium falciparum 3D7, 3D7
T4 sequence (O96935 whole entry): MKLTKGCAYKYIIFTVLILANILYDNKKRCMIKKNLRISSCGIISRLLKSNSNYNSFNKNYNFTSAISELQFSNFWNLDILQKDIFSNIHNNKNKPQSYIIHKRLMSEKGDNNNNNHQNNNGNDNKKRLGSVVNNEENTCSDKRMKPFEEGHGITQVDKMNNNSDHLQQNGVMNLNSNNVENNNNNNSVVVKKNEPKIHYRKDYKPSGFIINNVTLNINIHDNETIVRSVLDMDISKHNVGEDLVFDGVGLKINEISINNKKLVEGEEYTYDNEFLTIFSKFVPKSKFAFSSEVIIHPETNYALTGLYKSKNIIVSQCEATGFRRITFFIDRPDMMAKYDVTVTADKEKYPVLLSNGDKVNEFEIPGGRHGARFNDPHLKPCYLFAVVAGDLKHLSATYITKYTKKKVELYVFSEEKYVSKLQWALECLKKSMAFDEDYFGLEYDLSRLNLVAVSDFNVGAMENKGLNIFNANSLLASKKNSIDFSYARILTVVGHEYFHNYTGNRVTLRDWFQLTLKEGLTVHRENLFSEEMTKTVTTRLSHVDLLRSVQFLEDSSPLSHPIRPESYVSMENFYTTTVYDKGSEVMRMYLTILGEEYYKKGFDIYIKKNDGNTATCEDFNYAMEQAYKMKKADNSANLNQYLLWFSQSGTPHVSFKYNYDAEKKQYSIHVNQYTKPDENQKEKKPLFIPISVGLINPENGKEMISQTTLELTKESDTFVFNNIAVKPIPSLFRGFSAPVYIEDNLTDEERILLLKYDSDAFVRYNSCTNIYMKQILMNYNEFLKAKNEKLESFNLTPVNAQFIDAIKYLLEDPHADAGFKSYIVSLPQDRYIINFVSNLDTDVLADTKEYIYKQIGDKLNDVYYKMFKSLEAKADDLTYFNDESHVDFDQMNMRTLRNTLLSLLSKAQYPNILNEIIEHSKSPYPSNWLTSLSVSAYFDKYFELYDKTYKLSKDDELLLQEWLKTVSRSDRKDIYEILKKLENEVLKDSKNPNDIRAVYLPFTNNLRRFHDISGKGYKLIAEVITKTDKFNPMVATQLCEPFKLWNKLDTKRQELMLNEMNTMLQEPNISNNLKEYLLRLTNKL

[13] = biological target: T5, Zinc finger protein mex-5 (Caenorhabditis elegans, UniProt Q9XUB2); experiment: MEX-5/TCR-2 RNA interaction inhibitors, dose response, biochemical, C. elegans, fluorescence polarization (AID 1960)
T5 sequence (Q9XUB2 whole entry): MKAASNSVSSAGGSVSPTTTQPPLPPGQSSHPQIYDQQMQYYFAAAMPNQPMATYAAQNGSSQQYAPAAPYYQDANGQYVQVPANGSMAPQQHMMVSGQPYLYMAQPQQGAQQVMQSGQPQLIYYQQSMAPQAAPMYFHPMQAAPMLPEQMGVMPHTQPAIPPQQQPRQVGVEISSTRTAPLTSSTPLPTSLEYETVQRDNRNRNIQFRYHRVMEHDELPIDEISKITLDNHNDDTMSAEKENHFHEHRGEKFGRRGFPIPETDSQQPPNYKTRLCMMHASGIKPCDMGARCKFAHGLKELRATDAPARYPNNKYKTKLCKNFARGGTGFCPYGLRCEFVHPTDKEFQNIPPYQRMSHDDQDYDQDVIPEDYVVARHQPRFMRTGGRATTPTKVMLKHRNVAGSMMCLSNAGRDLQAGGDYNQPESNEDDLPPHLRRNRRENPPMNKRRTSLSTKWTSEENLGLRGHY

[14] = biological target: T6, RNA-binding protein pos-1 (Caenorhabditis elegans, UniProt G5EF15); experiment: inhibitors of POS-1/mex-3 RNA binding, dose response, biochemical, fluorescence polarization (AID 1964);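 also: purified POS-1 fused to maltose binding protein made in E. coli; potency of compounds blocking POS-1 binding to fluorescent RNA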
T6 sequence (G5EF15 whole entry): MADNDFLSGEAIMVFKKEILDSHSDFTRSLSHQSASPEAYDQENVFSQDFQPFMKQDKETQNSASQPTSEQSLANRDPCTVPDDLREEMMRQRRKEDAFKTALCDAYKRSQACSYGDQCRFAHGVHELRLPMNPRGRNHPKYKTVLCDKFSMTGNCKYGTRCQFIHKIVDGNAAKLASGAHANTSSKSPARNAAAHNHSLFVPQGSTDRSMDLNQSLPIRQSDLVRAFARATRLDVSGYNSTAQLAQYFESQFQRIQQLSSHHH

Sequence of DNA dC->dU-editing enzyme APOBEC-3G (Q9HC16 whole entry): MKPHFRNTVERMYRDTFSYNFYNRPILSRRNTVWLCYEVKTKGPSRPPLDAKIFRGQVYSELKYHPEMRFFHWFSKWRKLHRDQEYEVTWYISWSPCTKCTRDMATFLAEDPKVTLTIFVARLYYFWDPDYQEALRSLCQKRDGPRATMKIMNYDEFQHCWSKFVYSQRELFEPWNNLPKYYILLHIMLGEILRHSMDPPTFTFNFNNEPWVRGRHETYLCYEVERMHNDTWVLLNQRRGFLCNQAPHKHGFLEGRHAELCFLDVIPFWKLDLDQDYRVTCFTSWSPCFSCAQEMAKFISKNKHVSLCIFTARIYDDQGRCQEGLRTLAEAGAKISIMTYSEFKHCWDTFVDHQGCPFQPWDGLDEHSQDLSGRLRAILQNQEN
Sequence of DNA dC->dU-editing enzyme APOBEC-3A (P31941 whole entry): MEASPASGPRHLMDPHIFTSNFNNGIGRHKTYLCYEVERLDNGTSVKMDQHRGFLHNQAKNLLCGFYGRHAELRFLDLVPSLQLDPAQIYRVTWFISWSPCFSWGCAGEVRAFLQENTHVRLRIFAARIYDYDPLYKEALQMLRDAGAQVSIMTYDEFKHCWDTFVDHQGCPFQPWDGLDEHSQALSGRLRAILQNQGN

Structure (SMILES) | IC50 [1] | IC50 [2] | IC50 [3] | also measured
COC(=O)C(C)N1C(=O)S/C(=C\c2ccc(-c3ccc(C(=O)O)cc3C)o2)C1=O (centres undefined) | 4.97 µM (active) | 5.66 µM (active) |  | 
O=C(Nc1ccc(F)cc1)Nc1cc(OCC(F)(F)F)cc(OCC(F)(F)F)c1 |  |  | > 50 µM (inactive) | AC50 [4]: 4.1 µM (active); AC50 [5]: 2.46 µM (active); AC50 [6]: 2.01 µM (active); AC50 [7]: 4.59 µM (active)
C=CCNC(=O)CN(c1ccc(F)cc1)S(=O)(=O)c1ccc(OC)cc1 |  |  | > 50 µM (inactive) | 
O=C(Nc1ccc(NC(=O)c2ccc(Cl)cc2Cl)cc1)c1cccs1 | 11.8 µM (active) | 10.6 µM (active) |  | 
CCN1CCN(c2ccc(S(=O)(=O)N3CCCCC3)cc2NC(=O)c2cccc(C(F)(F)F)c2)CC1 | 13.2 µM (active) | 7.71 µM (active) |  | EC50 [8]: 1.09 µM (active); EC50 [9]: > 30 µM (not active)
C=CCn1c(NC(=O)c2ccc(Br)o2)c(S(=O)(=O)c2ccccc2)c2nc3ccccc3nc21 |  |  |  | AC50 [10]: 10.6 µM (active); EC50 [11]: > 380 µM (inconclusive); IC50 [12]: 17.4 µM (active)
CCOC(=O)C1CCN(S(=O)(=O)c2ccc3c(c2)CC(=O)N3C)CC1 | 4 µM (active) | 2.81 µM (active) |  | 
Nn1c(Cc2cccc3ccccc23)nnc1SCCOc1ccc(F)cc1 |  |  | > 50 µM (inactive) | 
Cc1cc(NC(=O)COC(=O)c2cccc(S(=O)(=O)N(C)C3CCCCC3)c2)no1 |  |  | > 50 µM (inactive) | 
COc1cc2ccccc2cc1C(=O)NC(=S)Nc1cc(C(=O)O)ccc1C |  |  | > 50 µM (inactive) | EC50 [13]: > 300 µM (not active); EC50 [14]: > 300 µM (not active)
CC[n+]1c(C)n(Cc2ccccc2)c2ccc(C(=O)OC)cc21 | 3.62 µM (active) | 2.88 µM (active) |  | 
C[n+]1cccc(C(=O)N/N=C/c2ccc3c(c2)OCO3)c1 | 8.99 µM (active) | 3.15 µM (active) |  | 
Cc1n[nH]c(C)c1CCC(=O)N/N=C/c1cccs1 |  |  | > 50 µM (inactive) | 
